PMC8410836, “Rational design of hyperstable antibacterial peptides for food preservation” (NPJ Science of Food, 2021)
Converted amounts (≈) assume the structure as drawn. Like-named read-outs stand apart in the source and are kept apart here. Where a SMILES comes first, the peptide text is derived from it. Bridges are numbered along the chain shown (N, C = ends).

Experiments:
[1] = system: Micrococcus luteus ATCC4698
Method: (§1) Four Gram-positive bacteria: Listeria monocytogenes ATCC13932, Bacillus cereus ATCC11778, Staphylococcus aureus ATCC12900, and Micrococcus luteus ATCC4698 and three Gram-negative bacteria: Escherichia coli ATCC11775, Pectobacterium carotovorum MCC2112, and Salmonella typhimurium ATCC9844 were used in this study. These strains were stored at −80 °C in 25% (v/v) glycerol.
(§2) Antimicrobial assays against various bacterial cultures were done using the microdilution broth assay according to the Clinical and Laboratory Standards Institute (CLSI)[64] with some modifications. Mueller-Hinton broth was used to dilute the peptide stock and the bacterial inoculum. Inoculum was prepared from the mid-logarithmic phase culture. Each well of the microtiter plates received aliquots of 100 µL of the media containing different concentrations of peptide ranging from 0.3 to 300 µg/mL. The final concentration of bacteria in the wells was 5 × 10^5 Colony Forming Units (CFU) per mL. Ampicillin was used as positive control. For negative control, ultrapure water was used instead of peptides. Microtiter plates were incubated at 37 °C for 5–6 h with continuous shaking at 130 rpm (M. luteus cells were incubated for 7–8 h). The incubation time used for these assays was initially optimized using a 20-h incubation period. […] MIC assays were performed as three independent experiments in triplicates.

[2] = target: T1, bovine trypsin (Bos taurus, UniProt P00760); experiment: biochemical; conditions: SEM
Method: (§3) The amidase activity of trypsin and its inhibition was assayed using the chromogenic substrate BAPNA at pH 8.2 in 0.05 M Tris-HCl containing 0.02 M CaCl2 at 37 °C. The assay reaction contained 50 µL of trypsin solution (40–50 μg of trypsin in 1 mM HCl), 50 µL of water, and 125 µL of the substrate. The reaction was carried out at 37 °C for 10 min and stopped by addition of 0.25 mL of 30% acetic acid. […] The trypsin solution was incubated with an aliquot of inhibitor for 10 min at 37 °C and reaction started by the addition of 125 µL substrate and incubated at 37 °C for 10 min. […] The effect of varying substrate concentration (BAPNA) on bovine trypsin in the presence of fixed concentrations of peptides was studied. The inhibition constants (Ki) were evaluated using the double reciprocal and Dixon plot of the data[65],[66]. Data presented are averages and standard error calculated from two biological replicate experiments.

[3] = system: Bacillus cereus ATCC11778
Method: as §1, §2

[4] = system: Listeria monocytogenes ATCC13932
Method: as §1, §2

[5] = system: Salmonella typhimurium ATCC9844
Method: as §1, §2

[6] = system: Pectobacterium carotovorum MCC2112
Method: as §1, §2

[7] = system: Staphylococcus aureus ATCC12900
Method: as §1, §2

[8] = system: Escherichia coli ATCC11775
Method: as §1, §2

[9] = target: T1, bovine trypsin; conditions: BAPNA substrate, pH 8.2, 0.05 M Tris-HCl, 0.02 M CaCl2, 37 °C; double reciprocal and Dixon plot; mean and standard error of two biological replicates
Method: as §3

[10] = microdilution broth (CLSI, modified), Mueller-Hinton broth, 5 × 10^5 CFU/mL, 37 °C, 7–8 h, resazurin colour change, three independent experiments in triplicates
[11] = microdilution broth, MH broth, 5 × 10^5 CFU/mL, 37 °C, 5–6 h, resazurin

T1 sequence (P00760 24-246): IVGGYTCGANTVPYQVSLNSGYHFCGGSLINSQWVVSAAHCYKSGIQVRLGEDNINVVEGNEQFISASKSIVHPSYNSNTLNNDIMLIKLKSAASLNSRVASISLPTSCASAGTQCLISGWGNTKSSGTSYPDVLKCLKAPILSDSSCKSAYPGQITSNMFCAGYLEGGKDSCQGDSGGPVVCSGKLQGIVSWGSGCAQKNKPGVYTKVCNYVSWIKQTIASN

SMILES: CC[C@H](C)[C@@H]1NC(=O)[C@@H]2CCCN2C(=O)[C@@H]2CCCN2C(=O)[C@H]([C@@H](C)CC)NC(=O)[C@H](CO)NC(=O)[C@H]([C@@H](C)O)NC(=O)[C@@H](NC(=O)[C@H](C)N)CSSC[C@@H](C(=O)NCC(=O)N[C@@H](CCCCN)C(=O)O)NC1=O [HSEP2-ΔHR-ΔK8] (H-ACTSIPPICGK-OH; disulfide 2-9)
- MIC (µg/mL) M. luteus [1, 10]: >150 µg/mL

SMILES: CC[C@H](C)[C@H](NC(=O)[C@@H](NC(=O)[C@@H](N)CO)C(C)C)C(=O)N[C@@H](Cc1ccccc1)C(=O)NCC(=O)N[C@H]1CSSC[C@@H](C(=O)N[C@@H](Cc2ccccc2)C(=O)N[C@H](C(=O)NCC(=O)N[C@@H](Cc2ccccc2)C(=O)O)C(C)C)NC(=O)[C@H]([C@@H](C)CC)NC(=O)[C@@H]2CCCN2C(=O)[C@@H]2CCCN2C(=O)[C@H]([C@@H](C)CC)NC(=O)[C@H](CO)NC(=O)[C@H](CCCCN)NC(=O)[C@H]([C@@H](C)O)NC1=O [HSEP2-∆K19] (H-SVIFGCTKSIPPICFVGF-OH; disulfide 6-14)
- Ki [2]: 440 nM
- MIC Bacillus cereus [3, 11]: >150 µg/mL
- MIC Listeria monocytogenes [4, 11]: >150 µg/mL
- MIC Salmonella typhimurium [5, 11]: >150 µg/mL
- MIC Pectobacterium carotovorum [6, 11]: >150 µg/mL
- MIC Staphylococcus aureus [7, 11]: >150 µg/mL
- MIC (µg/mL) M. luteus [1, 10]: 25 µg/mL (≈ 13.1 µM)
- MIC Escherichia coli [8, 11]: >150 µg/mL

SMILES: CC[C@H](C)[C@H](NC(=O)[C@@H](NC(=O)[C@H](CO)NC(=O)[C@@H](N)CCCNC(=N)N)C(C)C)C(=O)N[C@@H](Cc1ccccc1)C(=O)NCC(=O)N[C@H]1CSSC[C@@H](C(=O)N[C@@H](Cc2ccccc2)C(=O)N[C@H](C(=O)NCC(=O)N[C@H](C(=O)N[C@@H](CCCNC(=N)N)C(=O)O)[C@@H](C)O)C(C)C)NC(=O)[C@H]([C@@H](C)CC)NC(=O)[C@@H]2CCCN2C(=O)[C@@H]2CCCN2C(=O)[C@H]([C@@H](C)CC)NC(=O)[C@H](CO)NC(=O)[C@H](CCCCN)NC(=O)[C@H]([C@@H](C)O)NC1=O [HSEP3b] (H-RSVIFGCTKSIPPICFVGTR-OH; disulfide 7-15)
- Ki [2]: 500 nM
- MIC Bacillus cereus [3, 11]: 50 µg/mL (≈ 22.9 µM)
- MIC Listeria monocytogenes [4, 11]: 100 µg/mL (≈ 45.9 µM)
- MIC Salmonella typhimurium [5, 11]: >150 µg/mL
- MIC Pectobacterium carotovorum [6, 11]: 50 µg/mL (≈ 22.9 µM)
- MIC Staphylococcus aureus [7, 11]: >150 µg/mL
- MIC (µg/mL) M. luteus [1, 10]: 6.25 µg/mL (≈ 2.87 µM)
- MIC Escherichia coli [8, 11]: >150 µg/mL

SMILES: CC[C@H](C)[C@H](NC(=O)[C@H](Cc1ccccc1)NC(=O)[C@H](CO)NC(=O)[C@@H](N)CCCNC(=N)N)C(=O)N[C@@H](Cc1ccccc1)C(=O)NCC(=O)N[C@H]1CSSC[C@@H](C(=O)N[C@@H](Cc2ccccc2)C(=O)N[C@H](C(=O)NCC(=O)N[C@@H](Cc2ccccc2)C(=O)N[C@@H](CCCCN)C(=O)O)C(C)C)NC(=O)[C@H]([C@@H](C)CC)NC(=O)[C@@H]2CCCN2C(=O)[C@@H]2CCCN2C(=O)[C@H]([C@@H](C)CC)NC(=O)[C@H](CO)NC(=O)[C@H](CCCCN)NC(=O)[C@H]([C@@H](C)O)NC1=O [HSEP3a] (H-RSFIFGCTKSIPPICFVGFK-OH; disulfide 7-15)
- Ki [2]: 55 nM
- MIC Bacillus cereus [3, 11]: >150 µg/mL
- MIC Listeria monocytogenes [4, 11]: >150 µg/mL
- MIC Salmonella typhimurium [5, 11]: >150 µg/mL
- MIC Pectobacterium carotovorum [6, 11]: >150 µg/mL
- MIC Staphylococcus aureus [7, 11]: >150 µg/mL
- MIC (µg/mL) M. luteus [1, 10]: 12.5 µg/mL (≈ 5.57 µM)
- MIC Escherichia coli [8, 11]: >150 µg/mL

SMILES: CC[C@H](C)[C@H](NC(=O)[C@H](Cc1c[nH]c2ccccc12)NC(=O)[C@H](CO)NC(=O)[C@@H](N)CCCNC(=N)N)C(=O)N[C@@H](Cc1ccccc1)C(=O)N[C@H]1CSSC[C@@H](C(=O)N[C@@H](Cc2ccccc2)C(=O)N[C@H](C(=O)NCC(=O)N[C@@H](Cc2c[nH]c3ccccc23)C(=O)N[C@@H](CCCNC(=N)N)C(=O)O)C(C)C)NC(=O)[C@H]([C@@H](C)CC)NC(=O)[C@@H]2CCCN2C(=O)[C@@H]2CCCN2C(=O)[C@H]([C@@H](C)CC)NC(=O)[C@H](Cc2ccc(O)cc2)NC(=O)[C@H](CCCNC(=N)N)NC(=O)[C@H]([C@@H](C)O)NC1=O [HSEP3d] (H-RSWIFCTRYIPPICFVGWR-OH; disulfide 6-14; N-terminus and C-terminus assumed)
- Ki [2]: 370 nM
- MIC Bacillus cereus ([3]; ATCC11778): 100 µg/mL (≈ 41.7 µM)
- MIC Listeria monocytogenes ([4]; ATCC13932): >150 µg/mL
- MIC Salmonella typhimurium ([5]; ATCC9844): >150 µg/mL
- MIC Pectobacterium carotovorum [6]: >150 µg/mL
- MIC Staphylococcus aureus ([7]; ATCC12900): >150 µg/mL
- MIC (µg/mL) M. luteus ([1]; ATCC4698): 3.125 µg/mL (≈ 1.3 µM)
- MIC Escherichia coli ([8]; ATCC11775): >150 µg/mL

SMILES: CC[C@H](C)[C@@H]1NC(=O)[C@@H]2CCCN2C(=O)[C@@H]2CCCN2C(=O)[C@H]([C@@H](C)CC)NC(=O)[C@H](CO)NC(=O)[C@H](CCCCN)NC(=O)[C@H]([C@@H](C)O)NC(=O)[C@@H]2CSSC[C@H](NC1=O)C(=O)N[C@@H](Cc1ccccc1)C(=O)N1CCC[C@H]1C(=O)N[C@@H](CC(=O)O)C(=O)NCC(=O)N[C@@H](CCCNC(=N)N)C(=O)N2 [SFTI-cyclic, reference compound]
- MIC (µg/mL) M. luteus [1, 10]: no detectable inhibitory activity

SMILES: CC[C@H](C)[C@H](NC(=O)[C@@H](NC(=O)[C@@H](N)CO)C(C)C)C(=O)NCC(=O)N[C@H]1CSSC[C@@H](C(=O)N[C@@H](Cc2ccccc2)C(=O)N[C@H](C(=O)N[C@@H](CCCCN)C(=O)O)C(C)C)NC(=O)[C@@H]2CCCN2C(=O)[C@H](CCCNC(=N)N)NC(=O)[C@@H]2CCCN2C(=O)[C@@H]2CCCN2C(=O)[C@H]([C@@H](C)CC)NC(=O)[C@H](CO)NC(=O)[C@H](CCCCN)NC(=O)[C@H]([C@@H](C)O)NC(=O)[C@H](Cc2c[nH]c3ccccc23)NC1=O [HVBBI, reference compound] (H-SVIGCWTKSIPPRPCFVK-OH; disulfide 5-15)
- Ki [2]: 370 nM
- MIC (µg/mL) M. luteus [1, 10]: 150 µg/mL (≈ 74.4 µM)

SMILES: CC[C@H](C)[C@H](NC(=O)[C@@H](NC(=O)[C@@H](N)CO)C(C)C)C(=O)N[C@@H](Cc1ccccc1)C(=O)NCC(=O)N[C@H]1CSSC[C@@H](C(=O)N[C@@H](Cc2ccccc2)C(=O)N[C@H](C(=O)NCC(=O)N[C@@H](Cc2ccccc2)C(=O)N[C@@H](CCCCN)C(=O)O)C(C)C)NC(=O)[C@H]([C@@H](C)CC)NC(=O)[C@@H]2CCCN2C(=O)[C@@H]2CCCN2C(=O)[C@H]([C@@H](C)CC)NC(=O)[C@H](CO)NC(=O)CNC(=O)[C@H]([C@@H](C)O)NC1=O [HSEP2-K8G] (H-SVIFGCTGSIPPICFVGFK-OH; disulfide 6-14)
- Ki (M) against bovine trypsin [9]: failed to show any trypsin inhibition
- MIC (µg/mL) M. luteus ([1]; ATCC4698): 37.5 µg/mL (≈ 19 µM)

SMILES: CC[C@H](C)[C@H](NC(=O)[C@@H](NC(=O)[C@@H](N)CO)C(C)C)C(=O)NCC(=O)N[C@H]1CSSC[C@@H](C(=O)N[C@@H](Cc2ccccc2)C(=O)N[C@H](C(=O)N[C@@H](CCCCN)C(=O)O)C(C)C)NC(=O)[C@H]([C@@H](C)CC)NC(=O)[C@@H]2CCCN2C(=O)[C@@H]2CCCN2C(=O)[C@H]([C@@H](C)CC)NC(=O)[C@H](CO)NC(=O)[C@H](CCCCN)NC(=O)[C@H]([C@@H](C)O)NC1=O [HSEP1] (H-SVIGCTKSIPPICFVK-OH; disulfide 5-13)
- Ki [2]: 230 nM
- MIC (µg/mL) M. luteus [1, 10]: 75 µg/mL (≈ 44.4 µM)

SMILES: CC[C@H](C)[C@H](NC(=O)[C@@H](NC(=O)[C@H](CO)NC(=O)[C@@H](N)CCCNC(=N)N)C(C)C)C(=O)N[C@@H](Cc1ccccc1)C(=O)NCC(=O)N[C@H]1CSSC[C@@H](C(=O)N[C@@H](Cc2ccccc2)C(=O)N[C@H](C(=O)NCC(=O)N[C@@H](Cc2ccccc2)C(=O)N[C@@H](CCCCN)C(=O)O)C(C)C)NC(=O)[C@H]([C@@H](C)CC)NC(=O)[C@@H]2CCCN2C(=O)[C@@H]2CCCN2C(=O)[C@H]([C@@H](C)CC)NC(=O)[C@H](CCCCN)NC(=O)[C@H](CO)NC(=O)[C@H](CCCCN)NC(=O)[C@H]([C@@H](C)O)NC1=O [HSEP3c] (H-RSVIFGCTKSKIPPICFVGFK-OH; disulfide 7-16; N-terminus and C-terminus assumed)
- Ki [2]: 1400 nM
- MIC Bacillus cereus ([3]; ATCC11778): 100 µg/mL (≈ 43 µM)
- MIC Listeria monocytogenes ([4]; ATCC13932): 50 µg/mL (≈ 21.5 µM)
- MIC Salmonella typhimurium ([5]; ATCC9844): >150 µg/mL
- MIC Pectobacterium carotovorum [6]: 50 µg/mL (≈ 21.5 µM)
- MIC Staphylococcus aureus ([7]; ATCC12900): 150 µg/mL (≈ 64.5 µM)
- MIC (µg/mL) M. luteus ([1]; ATCC4698): 3.125 µg/mL (≈ 1.34 µM)
- MIC Escherichia coli ([8]; ATCC11775): 100 µg/mL (≈ 43 µM)
